Reference: patent publication US9662323B2, “Compounds having muscarinic receptor antagonist and beta2 adrenergic receptor agonist activity” (CHIESI FARMACEUTICI S.p.A., priority 2015, dated 2017)

How the values were obtained:
Human M3 receptor = biological target: T1, Human M3 receptor (Homo sapiens, UniProt P20309); assay: M3 Receptor Radioligand Binding Assay; settings: human M3 receptor membranes, [3H]-N-methyl scopolamine; read-out: M3 binding affinity (Ki class)
T1 construct: purchased Perkin Elmer
Protocol: Biological Characterization M3 Receptor Radioligand Binding Assay
The assay was carried out in 96-well polypropylene plates in a volume of 250 ul. […] The final assay concentration of DMSO was 0.5% (v/v). The plates were sealed and incubated for 2 h at room temperature on an orbital shaker (slow speed). Membranes were harvested onto 96-well unifilter GF/C filter plates pre-treated with 0.5% polyethyleneimine (v/v), using a filter manifold, washed four times with 200 ul of assay buffer. The plates were dried before addition of 50 μl of microscint-0, sealed then read in a Trilux Microbeta scintillation counter.

Human β2 adrenoceptor = biological target: T2, Human β2 adrenoceptor (Homo sapiens, UniProt P07550); assay: β2 Adrenoceptor Radioligand Binding Assay; settings: human β2 adrenoceptor membranes, 125-I Cyanopindolol; read-out: B2 binding affinity (Ki class)
T2 construct: purchased Perkin Elmer
Protocol: β2 Adrenoceptor Radioligand Binding Assay
The assay was carried out in 96-well polypropylene plates in a volume of 200 ul. The assay buffer used was 25 mM HEPES, 0.5% BSA (w/v), 1 mM EDTA, 0.02% ascorbic acid (v/v), (pH 7.4). The final assay concentration of DMSO was 0.5% (v/v). The plates were sealed and incubated for 1 h at room temperature on an orbital shaker (slow speed). Membranes were harvested onto 96-well unifilter GF/C filter plates pre-treated with 0.5% polyethyleneimine (v/v), using a filter manifold, washed six times with 200 ul of wash buffer containing 10 mM HEPES and 500 mM NaCl. The plates were dried before addition of 50 μl of microscint-0, sealed then read in a Trilux Microbeta scintillation counter. IC50 values are determined from competition curves using a non-linear curve fitting program. Ki values were calculated from IC50 values by the Cheng and Prusoff equation.

T2 sequence (P07550 whole entry): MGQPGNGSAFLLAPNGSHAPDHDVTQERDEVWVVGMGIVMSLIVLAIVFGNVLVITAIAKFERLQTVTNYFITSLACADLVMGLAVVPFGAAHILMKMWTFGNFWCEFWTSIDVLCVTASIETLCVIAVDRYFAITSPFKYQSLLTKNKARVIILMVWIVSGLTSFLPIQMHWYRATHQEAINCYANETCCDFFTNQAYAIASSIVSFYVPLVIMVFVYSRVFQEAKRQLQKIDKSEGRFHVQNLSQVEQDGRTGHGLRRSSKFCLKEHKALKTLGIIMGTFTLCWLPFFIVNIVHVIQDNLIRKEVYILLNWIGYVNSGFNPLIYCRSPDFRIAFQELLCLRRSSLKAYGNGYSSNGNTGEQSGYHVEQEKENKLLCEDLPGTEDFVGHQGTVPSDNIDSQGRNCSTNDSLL
T1 sequence (P20309 whole entry): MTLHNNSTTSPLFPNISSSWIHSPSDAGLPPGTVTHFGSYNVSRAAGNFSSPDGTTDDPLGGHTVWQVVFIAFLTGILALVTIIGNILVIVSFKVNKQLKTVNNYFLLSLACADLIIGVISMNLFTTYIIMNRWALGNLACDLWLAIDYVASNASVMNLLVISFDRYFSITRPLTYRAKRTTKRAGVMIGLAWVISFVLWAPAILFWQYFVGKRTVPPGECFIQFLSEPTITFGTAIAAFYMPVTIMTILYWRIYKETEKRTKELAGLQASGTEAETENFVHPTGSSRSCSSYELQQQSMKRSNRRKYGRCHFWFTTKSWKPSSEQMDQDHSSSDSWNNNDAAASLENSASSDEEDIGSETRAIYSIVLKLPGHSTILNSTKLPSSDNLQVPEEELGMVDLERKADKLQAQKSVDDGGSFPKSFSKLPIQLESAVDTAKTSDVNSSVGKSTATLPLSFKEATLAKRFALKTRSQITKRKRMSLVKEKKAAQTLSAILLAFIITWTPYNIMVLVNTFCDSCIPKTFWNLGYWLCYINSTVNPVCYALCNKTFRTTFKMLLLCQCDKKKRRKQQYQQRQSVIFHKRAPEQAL

Row | SMILES | Ki (Human M3 receptor) | Ki (Human β2 adrenoceptor)
1 | O=C(c1ccc(OCCCCCNC[C@H](O)c2ccc(O)c3[nH]c(=O)ccc23)cc1)N1CCC(C(=O)O[C@H]2CN3CCC2CC3)(c2ccccc2)CC1 [Compound 1, (R)-Quinuclidin-3-yl 1-(4-((5-(((R)-2-hydroxy-2-(8-hydroxy-2-oxo-1,2-dihydroquinolin-5-yl)ethyl)amino)pentyl)oxy)benzoyl)-4-phenylpiperidine-4-carboxylate] | < 1 nM | < 1 nM
2 | O=C(c1ccc(OCCCCCNC[C@H](O)c2ccc(O)c3[nH]c(=O)ccc23)cc1)N1CC(C(=O)O[C@H]2CN3CCC2CC3)(c2ccccc2)C1 [Compound 1A, (R)-Quinuclidin-3-yl 1-(4-((5-(((R)-2-hydroxy-2-(8-hydroxy-2-oxo-1,2-dihydroquinolin-5-yl)ethyl)amino)pentyl)oxy)benzoyl)-3-phenylazetidine-3-carboxylate] | 1 to 10 nM | < 1 nM
3 | O=C(c1cccc(OCCCCCNC[C@H](O)c2ccc(O)c3[nH]c(=O)ccc23)c1)N1CCC(C(=O)O[C@H]2CN3CCC2CC3)(c2ccccc2)CC1 [Compound 2, (R)-Quinuclidin-3-yl 1-(3-((5-(((R)-2-hydroxy-2-(8-hydroxy-2-oxo-1,2-dihydroquinolin-5-yl)ethyl)amino)pentyl)oxy)benzoyl)-4-phenylpiperidine-4-carboxylate] | 1 to 10 nM | < 1 nM
4 | O=C(c1ccc(OCCCCCCNC[C@H](O)c2ccc(O)c3[nH]c(=O)ccc23)cc1)N1CC(C(=O)O[C@H]2CN3CCC2CC3)(c2ccccc2)C1 [Compound 2A, (R)-Quinuclidin-3-yl 1-(4-((6-(((R)-2-hydroxy-2-(8-hydroxy-2-oxo-1,2-dihydroquinolin-5-yl)ethyl)amino)hexyl)oxy)benzoyl)-3-phenylazetidine-3-carboxylate] | < 1 nM | < 1 nM
5 | COc1cc(C(=O)N2CCC(C(=O)O[C@H]3CN4CCC3CC4)(c3ccccc3)CC2)ccc1OCCCCCNC[C@H](O)c1ccc(O)c2[nH]c(=O)ccc12 [Compound 3, (R)-Quinuclidin-3-yl 1-(4-((5-(((R)-2-hydroxy-2-(8-hydroxy-2-oxo-1,2-dihydroquinolin-5-yl)ethyl)amino)pentyl)oxy)-3-methoxybenzoyl)-4-phenylpiperidine-4-carboxylate] | 1 to 10 nM | < 1 nM
6 | O=C(c1ccc(OCCCCCCNC[C@H](O)c2ccc(O)c3[nH]c(=O)ccc23)cc1)N1CC(C(=O)O[C@H]2CN3CCC2CC3)(c2ccc(F)cc2)C1 [Compound 3A, (R)-Quinuclidin-3-yl 3-(4-fluorophenyl)-1-(4-((6-(((R)-2-hydroxy-2-(8-hydroxy-2-oxo-1,2-dihydroquinolin-5-yl)ethyl)amino)hexyl)oxy)benzoyl)azetidine-3-carboxylate] | 1 to 10 nM | < 1 nM
7 | O=C(c1ccc(OCCCCCNC[C@H](O)c2ccc(O)c3[nH]c(=O)ccc23)c(Cl)c1)N1CCC(C(=O)O[C@H]2CN3CCC2CC3)(c2ccccc2)CC1 [Compound 4, (R)-Quinuclidin-3-yl 1-(4-((5-(((R)-2-hydroxy-2-(8-hydroxy-2-oxo-1,2-dihydroquinolin-5-yl)ethyl)amino)pentyl)oxy)-3-chlorobenzoyl)-4-phenylpiperidine-4-carboxylate] | 1 to 10 nM | < 1 nM
8 | O=C(c1cccc(OCCCCCNC[C@H](O)c2ccc(O)c3[nH]c(=O)ccc23)c1)N1CC(C(=O)O[C@H]2CN3CCC2CC3)(c2ccccc2)C1 [Compound 4A, (R)-Quinuclidin-3-yl 1-(3-((5-(((R)-2-hydroxy-2-(8-hydroxy-2-oxo-1,2-dihydroquinolin-5-yl)ethyl)amino)pentyl)oxy)benzoyl)-3-phenylazetidine-3-carboxylate] | 1 to 10 nM | < 1 nM
9 | O=C(c1cc(Cl)c(OCCCCCNC[C@H](O)c2ccc(O)c3[nH]c(=O)ccc23)c(Cl)c1)N1CCC(C(=O)O[C@H]2CN3CCC2CC3)(c2ccccc2)CC1 [Compound 5, (R)-Quinuclidin-3-yl 1-(3,5-dichloro-4-((5-(((R)-2-hydroxy-2-(8-hydroxy-2-oxo-1,2-dihydroquinolin-5-yl)ethyl)amino)pentyl)oxy)benzoyl)-4-phenylpiperidine-4-carboxylate] | 1 to 10 nM | 1 to 10 nM
10 | O=C(CCc1ccc(OCCCCCNC[C@H](O)c2ccc(O)c3[nH]c(=O)ccc23)cc1)N1CC(C(=O)O[C@H]2CN3CCC2CC3)(c2ccccc2)C1 [Compound 5A, (R)-Quinuclidin-3-yl 1-(3-(4-((5-(((R)-2-hydroxy-2-(8-hydroxy-2-oxo-1,2-dihydroquinolin-5-yl)ethyl)amino)pentyl)oxy)phenyl)propanoyl)-3-phenylazetidine-3-carboxylate] | 1 to 10 nM | < 1 nM
11 | O=C(c1ccc(OCCCCCNC[C@H](O)c2ccc(O)c3[nH]c(=O)ccc23)c(-c2ccsc2)c1)N1CCC(C(=O)O[C@H]2CN3CCC2CC3)(c2ccccc2)CC1 [Compound 6, (R)-Quinuclidin-3-yl 1-(4-((5-(((R)-2-hydroxy-2-(8-hydroxy-2-oxo-1,2-dihydroquinolin-5-yl)ethyl)amino)pentyl)oxy)-3-(thiophen-3-yl)benzoyl)-4-phenylpiperidine-4-carboxylate] | > 10 nM | < 1 nM
12 | O=C(Cc1ccc(OCCCCCNC[C@H](O)c2ccc(O)c3[nH]c(=O)ccc23)cc1)N1CC(C(=O)O[C@H]2CN3CCC2CC3)(c2ccccc2)C1 [Compound 6A, (R)-Quinuclidin-3-yl 1-(2-(4-((5-(((R)-2-hydroxy-2-(8-hydroxy-2-oxo-1,2-dihydroquinolin-5-yl)ethyl)amino)pentyl)oxy)phenyl)acetyl)-3-phenylazetidine-3-carboxylate] | 1 to 10 nM | < 1 nM
13 | O=C(CCc1ccc(OCCCCCNC[C@H](O)c2ccc(O)c3[nH]c(=O)ccc23)cc1)N1CCC(C(=O)O[C@H]2CN3CCC2CC3)(c2ccccc2)CC1 [Compound 7, (R)-Quinuclidin-3-yl 1-(3-(4-((5-(((R)-2-hydroxy-2-(8-hydroxy-2-oxo-1,2-dihydroquinolin-5-yl)ethyl)amino)pentyl)oxy)phenyl)propanoyl)-4-phenylpiperidine-4-carboxylate] | < 1 nM | < 1 nM
14 | O=C(c1ccc(OCc2cccc(OCCCCNC[C@H](O)c3ccc(O)c4[nH]c(=O)ccc34)c2)cc1)N1CC(C(=O)O[C@H]2CN3CCC2CC3)(c2ccccc2)C1 [Compound 7A, (R)-Quinuclidin-3-yl 1-(4-((3-(4-(((R)-2-hydroxy-2-(8-hydroxy-2-oxo-1,2-dihydroquinolin-5-yl)ethyl)amino)butoxy)benzyl)oxy)benzoyl)-3-phenylazetidine-3-carboxylate] | 1 to 10 nM | < 1 nM
15 | O=C(Cc1ccc(OCCCCCNC[C@H](O)c2ccc(O)c3[nH]c(=O)ccc23)cc1)N1CCC(C(=O)O[C@H]2CN3CCC2CC3)(c2ccccc2)CC1 [Compound 8, (R)-Quinuclidin-3-yl 1-(2-(4-((5-(((R)-2-hydroxy-2-(8-hydroxy-2-oxo-1,2-dihydroquinolin-5-yl)ethyl)amino)pentyl)oxy)phenyl)acetyl)-4-phenylpiperidine-4-carboxylate] | < 1 nM | < 1 nM
16 | O=C(c1ccc(OCc2ccc(CNC[C@H](O)c3ccc(O)c4[nH]c(=O)ccc34)cc2)cc1)N1CC(C(=O)O[C@H]2CN3CCC2CC3)(c2ccccc2)C1 [Compound 8A, (R)-Quinuclidin-3-yl 1-(4-((4-((((R)-2-hydroxy-2-(8-hydroxy-2-oxo-1,2-dihydroquinolin-5-yl)ethyl)amino)methyl)benzyl)oxy)benzoyl)-3-phenylazetidine-3-carboxylate] | < 1 nM | < 1 nM
17 | O=C(c1ccc(OCCCCCNC[C@H](O)c2ccc(O)c3[nH]c(=O)ccc23)c(F)c1)N1CCC(C(=O)O[C@H]2CN3CCC2CC3)(c2ccccc2)CC1 [Compound 9, (R)-Quinuclidin-3-yl 1-(3-fluoro-4-((5-(((R)-2-hydroxy-2-(8-hydroxy-2-oxo-1,2-dihydroquinolin-5-yl)ethyl)amino)pentyl)oxy)benzoyl)-4-phenylpiperidine-4-carboxylate] | 1 to 10 nM | > 10 nM
18 | O=C(NCc1ccc(CNC[C@H](O)c2ccc(O)c3[nH]c(=O)ccc23)cc1)c1ccc(C(=O)N2CC(C(=O)O[C@H]3CN4CCC3CC4)(c3ccccc3)C2)cc1 [Compound 9A, (R)-Quinuclidin-3-yl 1-(4-((4-((((R)-2-hydroxy-2-(8-hydroxy-2-oxo-1,2-dihydroquinolin-5-yl)ethyl)amino)methyl)benzyl)carbamoyl)benzoyl)-3-phenylazetidine-3-carboxylate] | < 1 nM | 1 to 10 nM
19 | Cc1cc(C(=O)N2CCC(C(=O)O[C@H]3CN4CCC3CC4)(c3ccccc3)CC2)ccc1OCCCCCNC[C@H](O)c1ccc(O)c2[nH]c(=O)ccc12 [Compound 10, (R)-Quinuclidin-3-yl 1-(4-((5-(((R)-2-hydroxy-2-(8-hydroxy-2-oxo-1,2-dihydroquinolin-5-yl)ethyl)amino)pentyl)oxy)-3-methylbenzoyl)-4-phenylpiperidine-4-carboxylate] | 1 to 10 nM | < 1 nM
